The values below come from patent US20150368617A1, “METHOD FOR FORMING ENDOTHELIAL CELLS” (Korea Advanced Institute of Science and Technology (KAIST), priority 2012, published 2015).

Assay [1] relates to ICAM2+ ECs. The experiment in a line: Quantitative RT-PCR of EC- and MC-related genes in purified ICAM2+ ECs. It counts as cell-based, mouse. The settings on record: VEGF-A plus Y27632 compared to VEGF-A. From the text:
Total RNA from purified ICAM-2+ ECs was extracted using Trizol RNA extraction kit (Invitrogen) according to the manufacturer's instructions. 1┌ g of the RNA was reverse transcribed into cDNA using GoScript™ cDNA synthesis system (Promega). Synthesized cDNA was applied for quantitative real-time PCR using FastStart SYBR green Master (Roche) and Bio-Rad S1000 Thermal cycler with the indicated primers (Table I). GAPDH was used as reference gene and the results were presented as relative expression to control using the ddCt method.

Assay [2] deals with ICAM2+ ECs. The experiment in a line: Expansion of purified ICAM2+ ECs for 2 days in 2D Matrigel system. It counts as cell-based, mouse. How it is done:
FIGS. 14A-14G. ROCK suppression continuously promotes the expansion of ECs. (FIG. 14A) ICAM2+ ECs were further incubated with PBS (Control), Y27632 (10┌ M), VEGF-A (50 ng/ml; VA) or Y27632 (10┌ M) plus VEGF-A (50 ng/ml) for 2 days, and analyses were performed at day 8.5. (FIG. 14B) Immunofluorescence images showing CD144+ EC colonies, ┌ SMA+MCs, and DAPI+ nuclei. Scale bars represent 100┌ m. (FIG. 14C) Representative FACS analysis of CD31+/CD144+ ECs. (FIG. 14D) % of CD31+/CD144+ EC population. Each group, n=3. *p<0.01 versus Control. (FIG. 14E) Relative cell number of ICAM2+ ECs. Each group, n=3. *p<0.01 versus Control; ^#p<0.01 versus VEGF-A. (FIG. 14F) Relative population of CD31+/CD144+ ECs. Population of CD31+/CD144+ ECs grown without VEGF-A and Y27632 was regarded as 100%. Each group, n=3. *p<0.01 versus Control; ^#p<0.01 versus VEGF-A. (FIG. 14G) % of adherent ICAM2+ECs onto plate at 6 hrs. Each group, n=3. *p<0.05 versus VEGF-A.
E14tg2a ESC cell line was a generous gift from Dr. Jun K. Yamashita (Kyoto University), and R1 ESC cell line was purchased from American Type Cell Culture. Mouse iPSC derived from FVB strain was a generous gift from Drs. Hyun-Jai Cho and Hyo-Soo Kim (Seoul National University Hospital). […]

On to `C[C@@H](N)[C@H]1CC[C@H](C(=O)Nc2ccncc2)CC1` [Y27632], for which, in the assay with ICAM2+ ECs [1], the “calponin mRNA, reduced expression level” value is 25 fold; the “claudin-5 mRNA, expressed more” value is listed as 4.6 fold; the “dll4 mRNA, expressed more” value was 2.5 fold; the “ets1 mRNA, expressed more” value was found to be 1.4 fold. Further, in the assay with ICAM2+ ECs [1], the “ets2 mRNA, expressed more” value came to 2.1 fold; the “notch1 mRNA, expressed more” value worked out at 1.5 fold; the “sm22a mRNA, reduced expression level” value is recorded as 25 fold; the “sma mRNA, reduced expression level” value is 17 fold. In addition, in the assay on ICAM2+ ECs [1], the “sox17 mRNA, expressed more” value is on record as 1.7 fold; the “sox18 mRNA, expressed more” value was 1.8 fold; the “vegfr3 mRNA, expressed more” value stood at 1.7 fold. Besides, the “decrease of CD31+/CD144+ EC population from the initial population of ˜90%” value in the assay on ICAM2+ ECs [2] (day 8.5, agent alone, ˜30% without either agent) is ~22%. Besides, in the assay on ICAM2+ ECs [2] (day 8.5, compared to Control without VEGF-A and Y27632), the “increase of total cell number” value is given as ~1.8 fold.
